Measurements published in US20240423971A1, “APPLICATION OF RIP2 INHIBITOR COMBINED WITH CHEMOTHERAPY DRUG” (NINGBO COMBIREG PHARMACEUTICAL TECHNOLOGY CO., LTD., priority 2021, published 2024).

How the values were obtained:
Format in all cases: in vivo, C57BL/6 mice
[1] = system: melanoma (B16F10); test: Melanoma (B16F10) tumor-bearing model, GSK583 combined with GEM; details: GSK583 1 mg/kg; for tumor growth compared to the vehicle control group: B16-F10 s.c. in C57BL/6 mice, GEM 60 mg/kg i.v. once every 4 days, 4 doses, to DAY 15
Experimental: The test substance GEM was prepared in normal saline, and GSK583 was prepared as a 20×DMSO stock solution, which was diluted with normal saline containing 5% polyoxyethylene castor oil (Cremophor EL) to the administration concentration before use. Experimental animals and tumor strains: SPF grade male wild-type C57BL/6 mice, 6 to 8 weeks old, purchased from Beijing Vital River Laboratory Animal Technology Co., Ltd. Cells used in the experiment: murine melanoma cells (B16-F10), purchased from ATCC. Mice were randomly divided into 4 groups with 8 mice in each group based on body weight according to the method shown in (A and B of FIG. 6), namely: (i) vehicle control group; (ii) GSK583 (1 mg/kg) group; (iii) GEM (60 mg/kg) group; (iv) GSK583 (1 mg/kg)+GEM (60 mg/kg) group. GEM, GSK583, and vehicle control were administered intravenously once every 4 days for a total of 4 doses. The mice were subcutaneously inoculated with B16-F10 cells with a concentration of 2× 10^6 cells/mL and 0.1 mL/mouse, and the day of inoculation was recorded as DAY 0. The administration was started on DAY 1. During the administration, the animals were weighed every 2 days. The long diameter and short diameter of the tumor were measured with a vernier caliper. The tumor size was calculated by the formula: (½)× long diameter×(short diameter) 2. The experiment was terminated on DAY 15. After the mice were euthanized and dissected, the tumor was weighed and photographed, and the tumor inhibition rate was calculated.

[2] = system: colorectal cancer (MC38); test: Colorectal cancer (MC38) tumor-bearing model, GSK583 combined with GEM; details: GSK583 1 mg/kg; for tumor growth compared to the vehicle control group: MC38 s.c. in C57BL/6 mice, tumors 50 to 100 mm^3 at start, GEM 40 mg/kg i.v. once every 4 days, 4 doses, to DAY 14
Experimental: The test substance GEM was prepared in normal saline, and GSK583 was prepared as a 20×DMSO stock solution, which was diluted with normal saline containing 5% polyoxyethylene castor oil (Cremophor EL) to the administration concentration before use. Experimental animals and tumor strains: SPF grade male wild-type C57BL/6 mice, 6 to 8 weeks old, purchased from Beijing Vital River Laboratory Animal Technology Co., Ltd. Cells used in the experiment: murine colorectal cancer cells (MC38), purchased from Union Cell Bank (China). According to the method shown in (A and B of FIG. 8), the mice were subcutaneously inoculated with MC38 cells with a concentration of 2×10^6 cells/mL and 0.1 mL/mouse. When the tumor grew to a volume within the range of 50 to 100 mm^3, the mice were randomly divided into 4 groups with 8 mice in each group based on tumor volume, and the administration was started with the following regimen: (i) vehicle control group; (ii) GSK583 (1 mg/kg) group; (iii) GEM (40 mg/kg) group; (iv) GSK583 (1 mg/kg)+GEM (40 mg/kg) group. GEM, GSK583, and vehicle were administered intravenously once every 4 days for a total of 4 doses. The day of grouping and administration was recorded as DAY 0. During the administration, the animals were weighed every 3 days. The long diameter and short diameter of the tumor were measured with a vernier caliper. The tumor size was calculated by the formula: (½)× long diameter× (short diameter) 2. The experiment was terminated on DAY 14. After the mice were euthanized and dissected, the tumor was weighed and photographed, and the tumor inhibition rate was calculated.

[3] = system: colorectal cancer (MC38); test: Colorectal cancer (MC38) tumor-bearing model, GSK583 combined with OXA; details: GSK583 1 mg/kg; for tumor growth compared to the vehicle control group: MC38 s.c. in C57BL/6 mice, tumors 100 mm^3 at start, OXA 6 mg/kg i.v. once every 4 days, 4 doses, to DAY 14
Experimental: According to the method shown in (A and B of FIG. 10), the mice were subcutaneously inoculated with MC38 cells with a concentration of 5×10^6 cells/mL and 0.1 mL/mouse. […] OXA, GSK583, and vehicle were administered intravenously once every 4 days for a total of 4 doses. The day of grouping and administration was recorded as DAY 0. During the administration, the animals were weighed every 3 days. The long diameter and short diameter of the tumor were measured with a vernier caliper. The tumor size was calculated by the formula: (½)×long diameter×(short diameter) 2. The experiment was terminated on DAY 14. After the mice were euthanized and dissected, the tumor was weighed and photographed, and the tumor inhibition rate was calculated.

[4] = system: melanoma (B16F10); test: Melanoma (B16F10) tumor-bearing model, GSK583 combined with DTX; details: for tumor growth compared to the vehicle control group: B16-F10 s.c. in C57BL/6 mice, GSK583 1 mg/kg i.v. every 4 days x4, DTX 5 mg/kg i.v. every 7 days x3, to DAY 16
Experimental: Both of the test substances DTX and GSK583 were prepared as a 20×DMSO stock solution, which was diluted with normal saline containing 5% polyoxyethylene castor oil (Cremophor EL) to the administration concentration before use.
Experimental animals and tumor strains: SPF grade male wild-type C57BL/6 mice, 6 to 8 weeks old, purchased from Beijing Vital River Laboratory Animal Technology Co., Ltd. Cells used in the experiment: murine melanoma cells (B16-F10), purchased from ATCC.
Mice were randomly divided into 4 groups with 8 mice in each group based on body weight according to the method shown in (A and B of FIG. 4), namely: (i) vehicle control group; (ii) GSK583 (1 mg/kg) group; (iii) Docetaxel (DTX; 5 mg/kg) group; (iv) GSK583 (1 mg/kg)+DTX (5 mg/kg) group. DTX was administered intravenously once every 7 days for a total of 3 doses; GSK583 and vehicle control were administered intravenously once every 4 days for a total of 4 doses. The mice were subcutaneously inoculated with B16-F10 cells with a concentration of 2× 10^6 cells/mL and 0.1 mL/mouse, and the day of inoculation was recorded as DAY 0. The administration was started on DAY 1. During the administration, the animals were weighed every 2 days. The long diameter and short diameter of the tumor were measured with a vernier caliper. The tumor size was calculated by the formula: (½)×long diameter×(short diameter) 2. The mice were euthanized on DAY 16, and after dissection, the tumor was weighed and the tumor inhibition rate was calculated.

[5] = system: melanoma (B16F10); test: Melanoma (B16F10) tumor-bearing model, GSK583 combined with PTX; details: B16-F10 s.c. in C57BL/6 mice; GSK583 1 mg/kg, PTX 10 mg/kg i.v. once every 4 days, 4 doses; to DAY 15
Experimental: Both of the test substances PTX (Sigma) and GSK583 (MCE) were prepared as a 20× DMSO stock solution, which was diluted with normal saline containing 5% (v/v) polyoxyethylene castor oil (Cremophor EL) to the administration concentration before use. Experimental animals and tumor strains: SPF grade male wild-type C57BL/6 mice, 6 to 8 weeks old, purchased from Beijing Vital River Laboratory Animal Technology Co., Ltd. Cells used in the experiment: murine melanoma cell line (B16-F10), purchased from ATCC. Mice were randomly divided into 4 groups with 8 mice in each group based on body weight according to the method shown in (A of FIG. 1 and B of FIG. 1), namely: (i) vehicle control group; (ii) GSK583 (1 mg/kg) group; (iii) PTX (10 mg/kg) group; (iv) GSK583 (1 mg/kg)+PTX (10 mg/kg) group. PTX, GSK583, and vehicle were administered intravenously once every 4 days for a total of 4 doses. The mice were subcutaneously inoculated with B16-F10 cells with a concentration of 2× 10^6 cells/mL and 0.1 mL/mouse, and the day of inoculation was recorded as DAY 0. The administration was started on DAY 1. During the administration, the animals were weighed every 2 days. The long diameter and short diameter of the tumor were measured with a vernier caliper. The tumor size was calculated by the formula: (½)×long diameter×(short diameter) 2. The experiment was terminated on DAY 15. After the mice were euthanized and dissected, the tumor was weighed and the tumor inhibition rate was calculated.

| SMILES | tumor growth compared to the vehicle control group [1] | tumor growth compared to the vehicle control group [2] | tumor growth compared to the vehicle control group [3] | tumor growth compared to the vehicle control group [4] | also measured |
| --- | --- | --- | --- | --- | --- |
| Nc1ccn([C@@H]2O[C@H](CO)[C@@H](O)C2(F)F)c(=O)n1 [GEM, Gemcitabine] | significantly inhibited tumor growth | no significant inhibitory effect | – | – | tumor weight at the end of the administration ([1]; B16-F10 in C57BL/6 mice, GEM 60 mg/kg i.v. every 4 days x4, DAY 15, vs control group): significantly and statistically lower than that of the control group; growth rate of tumor volume ([1]; B16-F10 in C57BL/6 mice, GEM 60 mg/kg i.v. every 4 days x4, vs control group): slower than that of the control group; growth rate of tumor volume ([2]; MC38 in C57BL/6 mice, GEM 40 mg/kg i.v. every 4 days x4): no significant inhibitory effect |
| O=C1[O][Pt]2([NH][C@@H]3CCCC[C@H]3[NH]2)[O]C1=O [OXA, Oxaliplatin] | – | – | no significant inhibitory effect | – | growth rate of tumor volume ([3]; MC38 in C57BL/6 mice, OXA 6 mg/kg i.v. every 4 days x4): no significant inhibitory effect |
| CC(=O)O[C@@]12CO[C@@H]1C[C@H](O)[C@@]1(C)C(=O)[C@H](O)C3=C(C)[C@@H](OC(=O)[C@H](O)[C@@H](NC(=O)OC(C)(C)C)c4ccccc4)C[C@@](O)([C@@H](OC(=O)c4ccccc4)[C@H]21)C3(C)C [DTX, Docetaxel] | – | – | – | significantly inhibited tumor growth | tumor weight at the end of the administration ([4]; B16-F10 in C57BL/6 mice, GSK583 1 mg/kg, DTX 5 mg/kg i.v., DAY 16, vs control group): significantly and statistically lower than that of the control group; growth rate of tumor volume ([4]; B16-F10 in C57BL/6 mice, GSK583 1 mg/kg, DTX 5 mg/kg i.v., vs control group): slower than that of the control group |
| CC(C)(C)S(=O)(=O)c1ccc2nccc(Nc3n[nH]c4ccc(F)cc34)c2c1 [GSK583] | no significant inhibitory effect on tumor growth | no significant inhibitory effect on tumor growth | no significant inhibitory effect on tumor growth | no significant inhibitory effect on tumor growth | tumor growth compared to the vehicle control group [5]: no significant inhibitory effect on tumor growth |
